{"source": "patent US20160220518A1", "about": "(iCeutica, Inc., priority 2009, published 2016)", "origin": "cited, not measured here", "conditions": "in vivo", "data": [{"molecule": "COc1ccc2cc([C@H](C)C(=O)O)ccc2c1", "note": "[naproxen]", "values": [{"measurement": "excreted in the urine as 6-0-desmethyl naproxen", "result": "< 1", "unit": "%"}, {"measurement": "excreted in the urine as naproxen", "result": "< 1", "unit": "%"}, {"measurement": "fraction of any dose excreted in the urine", "result": "Approximately 95%"}, {"measurement": "fraction of the administered dose excreted in the feces", "result": "≤ 3", "unit": "%"}]}]}
